Experimental data from patent US20250387437A1, “PHARMACEUTICAL COMPOSITION FOR PREVENTING OR TREATING ALOPECIA INCLUDING AKKERMANSIA” (priority 2022, published 2025).

Key:
[1] = tested on: alopecia-induced mice (testosterone); test: Confirmation of mouse hair growth through photograph; format: in vivo; conditions: testosterone 0.5 mg/day s.c. alopecia model, male C57BL/6 mice, daily treatment for 5 weeks, FIG. 1
Protocol: The animal experiment was carried out in compliance with the Animal use and Care Protocol of the Institutional Animal Care and Use Committee (IACUC). Seven-week-old male C57BL/6 mice were purchased and acclimated for 1 week, and then bred for 5 weeks. Regarding the breeding environment, the mice were bred at a constant temperature (22° C.) and relative humidity (40% to 60%) with a 12-hr light/12-hr dark cycle. A chow diet was fed to all experimental groups.
In order to make an alopecia model, 0.5 mg/day of testosterone was subcutaneously injected to mice in all experimental groups. A group in which alopecia was induced by testosterone administration was used as a negative control group, and finasteride was orally administered at 0.5 mg/kg/day as a positive control group. In the groups in which live bacteria and killed bacteria of the genus Akkermansia of the present invention are administrated, PBS containing L-cysteine and glycerol was orally administered as a vehicle.
For the mice in each experimental group, the degree of hair growth was observed through photographing hair. […] From the left side, there are the results of the negative control group (Testosterone), the positive control group (T+Finasteride), the Akkermansia muciniphila live bacteria-administered group (T+EB-AMDK19), and the Akkermansia muciniphila killed bacteria-administered group (T+EB-AMDK19 HI). […]

[2] = tested on: alopecia-induced mice (testosterone); test: Hair growth length increase effect; format: in vivo, C57BL/6 mice; conditions: after the 5-week experiment, average per group, FIGS. 2a-b
Protocol: The animal experiment was carried out in compliance with the Animal use and Care Protocol of the Institutional Animal Care and Use Committee (IACUC). Seven-week-old male C57BL/6 mice were purchased and acclimated for 1 week, and then bred for 5 weeks. Regarding the breeding environment, the mice were bred at a constant temperature (22° C.) and relative humidity (40% to 60%) with a 12-hr light/12-hr dark cycle. A chow diet was fed to all experimental groups. […] In order to make an alopecia model, 0.5 mg/day of testosterone was subcutaneously injected to mice in all experimental groups. A group in which alopecia was induced by testosterone administration was used as a negative control group, and finasteride was orally administered at 0.5 mg/kg/day as a positive control group. In the groups in which live bacteria and killed bacteria of the genus Akkermansia of the present invention are administrated, PBS containing L-cysteine and glycerol was orally administered as a vehicle. [table] After the 5-week experiment was completed, the hair length was measured for individuals in each experimental group to calculate an average value, and the results of the hair growth length increase effect experiment are shown as a graph in FIG. 2.

[3] = tested on: hair follicles of alopecia-induced C57BL/6 mice; test: Histological change in mouse hair follicles (hematoxylin-eosin staining); format: in vivo; conditions: skin tissue collected at week 5, H&E, optical microscope, FIGS. 5a-b
Protocol: The animal experiment was carried out in compliance with the Animal use and Care Protocol of the Institutional Animal Care and Use Committee (IACUC). Seven-week-old male C57BL/6 mice were purchased and acclimated for 1 week, and then bred for 5 weeks. Regarding the breeding environment, the mice were bred at a constant temperature (22° C.) and relative humidity (40% to 60%) with a 12-hr light/12-hr dark cycle. A chow diet was fed to all experimental groups. […] In order to make an alopecia model, 0.5 mg/day of testosterone was subcutaneously injected to mice in all experimental groups. A group in which alopecia was induced by testosterone administration was used as a negative control group, and finasteride was orally administered at 0.5 mg/kg/day as a positive control group. In the groups in which live bacteria and killed bacteria of the genus Akkermansia of the present invention are administrated, PBS containing L-cysteine and glycerol was orally administered as a vehicle. [table] In order to confirm the morphological change of male C57BL/6 mouse hair follicles, skin tissues collected at week 5 after […] administration were stained with hematoxylin-eosin and observed with an optical microscope to confirm the number of hair follicles, and the results are shown in FIGS. 5a and 5b.

`CC(C)(C)NC(=O)[C@H]1CC[C@H]2[C@@H]3CC[C@H]4NC(=O)C=C[C@]4(C)[C@H]3CC[C@]12C` [finasteride] was tested. Which “hair growth / regrowth in hair loss regions (photograph)” value [1] did it give?
Its value is “almost all regions thereof were changed to black at week 5”.

And the “skin color change in hair loss regions of the back (photograph)” value [1]?
Its value is “skin color was darkened from week 3 of treatment”.

What about the “hair length, comparison between treated groups” value [2] of the same molecule?
Its value is “showed similar patterns”.

What about the “number of telogen hair follicles compared to the negative control group” value [3] of the same molecule?
The value was “increased”.
